Numbered stars: 1 amine (or outer) side, 2 acyl side, 3 side chain; on linkers, the order of the positions; unused ones are H or OH. Bridge positions count the residues as written; N and C are the ends. Square brackets hold non-standard residues; d marks the D form. Peptide text beside a SMILES is read from it. I, II: the chains in the order shown. Actinocin(9to1) = Cc1c2oc3c(C)ccc(C(=O)[*:1])c3nc-2c(C(=O)[*:2])c(N)c1=O; NMeV = CN[C@H](C(=O)O)C(C)C; Sar = CNCC(=O)O
Assays:
[1] = system: HSC-2 cells; experiment: Cell-cycle analysis (propidium iodide, cell sorting); type: cell-based, human; conditions: HSC-2, 24 h, 1 μM; control 1.9 %
Experimental: Cell-cycle analysis was performed following the process described in the literature ([Kantoh et al., 2010]; [Nagai et al., 2018]; [Shi et al., 2018]), details of which are presented in a supplementary file. Briefly, cells (approximately 10^6 in number) were fixed with paraformaldehyde in PBS(−) and treated with RNase A. After staining with propidium iodide in the presence of 0.01% Nonidet-40 to prevent cell aggregation, the cells were filtered through Falcon cell strainers and then subjected to cell sorting, analyzed with Cell Sorter Software (version 2.1.2) (SONY Imaging Products and Solution Inc., Kanagawa, Japan).
HSC-2 cells were incubated for 24 h with actinomycin D (Act.D) (positive control of apoptosis induction) or MS4, 7, or 8, or without treatment (control), and subjected to cell cycle analysis. […] D (1 μM) (p < 0.05) from 1.9 % to 12.5%. […] The cell cycle analysis was performed only with HSC-2 cells; therefore, experiments with other OSCC cell lines should be conducted to support the generalization of our findings.
Treated and untreated cells (approximately 10^6 cells) were harvested, fixed with 1% paraformaldehyde in PBS without calcium and magnesium ions [PBS(−)]. Fixed cells were then washed twice with PBS(−) and treated for 30 min with 400 μl of 0.2 mg/ml RNase A (preheated for 10 min at 100 °C to inactivate DNase) to degrade RNA. Cells were then washed twice with PBS(−) and stained for 15 min with 0.01% propidium iodide (PI) in the presence of 0.01% NP-40 in PBS(−) to prevent cell aggregation. After filtering through Falcon® cell strainers ([…]) (Corning, NY, USA) to remove aggregated cells, PI-stained cells were subjected to cell sorting (SH800 Series; SONY Imaging Products and Solutions Inc., Kanagawa, Japan). Cell-cycle analysis was performed with Cell Sorter Software version 2.1.2. (SONY Imaging Products and Solution Inc.).

[2] = system: Ca9-22 cells (OSCC, gingival tissue); experiment: MTT cytotoxicity assay, Ca9-22; type: cell-based, human; conditions: for TS (C/A) tumor-selectivity index: CC50 HGF / CC50 Ca9-22 (both gingival); for CC50: Homo sapiens, Ca9-22, OSCC, 48 h, MTT, average of three determinations
Experimental: (§2) The viable cell number was determined in triplicate by the MTT method, following the approach adopted in previous studies ([Nagai et al., 2018]; [Shi et al., 2018] ). Briefly, the cells were incubated for 2 h with 0.2 mg/mL of MTT, and the formed formazan was dissolved with 0.1 mL of DMSO to determine the relative viable cell number at 560 nm.
(§3) Cells were inoculated at 2×10^3 cells/0.1 ml in a 96-microwell plate. […] Cells were incubated further for 48 h and the relative viable cell number was then determined by the MTT method and expressed as the absorbance of the cell lysate at 560 nm, using a microplate reader (Infinite F50R; TECAN, Männedorf, Switzerland) [49, 50]. Control cells were treated with the same amounts of DMSO and the cell damage induced by DMSO was subtracted from that induced by test agents. The concentration of compound that reduced the viable cell number by 50% (CC50) was determined from the dose–response curve and the mean value of CC50 for each cell type was calculated from triplicate assays.
(§4) Human oral squamous cell carcinoma (OSCC) cell lines [Ca9-22 (derived from gingival tissue); and HSC-2, HSC-3, HSC-4 (derived from tongue)] were purchased from Riken Cell Bank (Tsukuba, Japan). All of these cells were cultured at 37°C in DMEM supplemented with 10% heat-inactivated fetal bovine serum, 100 units/ml, penicillin G and 100 µg/ml streptomycin sulfate under a humidified 5% CO2 atmosphere. Cell morphology was checked periodically under a light microscope (EVOS FL; Thermo Fisher Scientific, Waltham, MA, USA).

[3] = system: human OSCC cell lines (Ca9-22, HSC-2, HSC-3, HSC-4); experiment: MTT cytotoxicity, four OSCC cell lines together (mean, TS, PSE, type of growth inhibition); type: cell-based; conditions: for type of growth inhibition on the OSCC cell lines: from dose-response curves, Figure 4, cytostatic = without complete cytotoxicity, cytotoxic = complete cell death; for TS (D/B) tumor-selectivity index: mean CC50 normal cells / mean CC50 OSCC cell lines; for CC50: Homo sapiens, mean of Ca9-22, HSC-2, HSC-3, HSC-4, read-out: CC50 OSCC mean (B)
Experimental: TS was calculated using the following equation: TS=mean CC50 against three normal oral cell types/mean CC50 against four OSCC cell lines (HGF, HPLF, HPC vs. Ca9-22, HSC-2, HSC-3, HSC-4). Since both Ca9-22 and HGF cells were derived from the gingival tissue, the relative sensitivity of these cells was also compared (as: CC50 against HGF/ CC50 against Ca9-22).
PSE was calculated by the following equation: PSE=mean CC50 against three normal oral cell types/(CC50 against four OSCC cell lines)2 × 100 (HGF, HPLF, HPC vs. Ca9-22, HSC-2, HSC-3, HSC-4); and as CC50 against HGF/(CC50 against Ca9-22)2 × 100 using the pair of cell types from the same tissue (gingiva) (see Table 1).
(§1) Estimation of CC50 values. […] The mean pCC50 values for normal cells and tumor cell lines were defined as N and T, respectively.

[4] = system: HSC-3 cells (OSCC, tongue); experiment: MTT cytotoxicity assay, HSC-3; type: cell-based, human; conditions: Homo sapiens, HSC-3; OSCC, 48 h, MTT, average of three determinations
Experimental: as §2, §3, §4

[5] = system: HSC-4 cells (OSCC, tongue); experiment: MTT cytotoxicity assay, HSC-4; type: cell-based, human; conditions: Homo sapiens, HSC-4, 48 h, average of three determinations
Experimental: as §2, §3, §4

[6] = MTT cytotoxicity assay, HGF; type: cell-based, human; conditions: human, human gingival fibroblasts (HGF), normal oral cells, average of three determinations
Experimental: as §2, §3, §4

[7] = MTT cytotoxicity assay, HPLF; type: cell-based, human; conditions: female, human, normal oral cells, average of three determinations
Experimental: as §2, §3
(§5) All of these cells were cultured at 37°C in DMEM supplemented with 10% heat-inactivated fetal bovine serum, 100 units/ml, penicillin G and 100 µg/ml streptomycin sulfate under a humidified 5% CO2 atmosphere.

[8] = MTT cytotoxicity assay, HPC; type: cell-based, human; conditions: female, human, human pulp cells (HPC), normal oral cells, average of three determinations
Experimental: as §2, §3, §5

[9] = MTT cytotoxicity, three normal oral cell types together (mean); type: cell-based, human; conditions: female, human; mean of HGF, HPLF, HPC; read-out: CC50 normal oral cells mean (D)
Source text: as §1

[10] = system: HSC-2 cells (OSCC, tongue); experiment: MTT cytotoxicity assay, HSC-2; conditions: Homo sapiens, HSC-2, 48 h, read-out: CC50 HSC-2
Experimental: as §2, §3, §4

SMILES | subG1 cell population [1] [%] | TS (C/A) tumor-selectivity index [2] | type of growth inhibition on the OSCC cell lines [3] | TS (D/B) tumor-selectivity index [3] | CC50 [2] [µM] | CC50 [4] [µM] | CC50 [5] [µM] | CC50 at 48 h [6] [µM] | CC50 at 48 h [7] [µM] | CC50 at 48 h [8] [µM] | CC50 [3] [µM] | CC50 at 48 h [9] [µM] | CC50 [10] [µM] | PSE (C/A^2)x100 potency-selectivity expression ([2]; HGF vs Ca9-22 (both gingival))
Cc1c2oc3c(C)ccc(C(=O)N[C@@H]4C(=O)N[C@H](C(C)C)C(=O)N5CCC[C@H]5C(=O)N(C)CC(=O)N(C)[C@@H](C(C)C)C(=O)O[C@@H]4C)c3nc-2c(C(=O)N[C@@H]2C(=O)N[C@H](C(C)C)C(=O)N3CCC[C@H]3C(=O)N(C)CC(=O)N(C)[C@@H](C(C)C)C(=O)O[C@@H]2C)c(N)c1=O [Act.D, actinomycin D, reference compound] (I: T[dV]P[Sar][NMeV] / II: T[dV]P[Sar][NMeV]; ester I:1-I:C, II:1-II:C; linker I:N-II:N via Actinocin(9to1)) | 12.5 | – | – | – | – | – | – | – | – | – | – | – | – | –
O=c1[nH]cc(F)c(=O)[nH]1 [Compound 5-FU, 5-fluorouracil, reference compound] | – | > 30.3 | cytostatic effects | > 28.6 | – | – | – | – | – | – | – | – | – | –
COc1cccc2c1C(=O)c1c(O)c3c(c(O)c1C2=O)C[C@@](O)(C(=O)CO)C[C@@H]3O[C@H]1C[C@H](N)[C@H](O)[C@H](C)O1 [DXR, doxorubicin, reference compound] | – | >45.5 | cytotoxic effects | >54.9 | 0.22 | 0.29 | 0.09 | > 10 | > 10 | 9.2 | 0.18 | > 9.7 | 0.12 | –
C/C(=N\Nc1ccc(S(N)(=O)=O)cc1)c1ccccc1 [MS1, (E)-4-(2-(1-phenylethylidene)hydrazinyl)benzenesulfonamide] | – | 2.5 | cytostatic effects | 4.5 | 20 | 53.7 | 15.7 | 50.7 | 246 | 51 | 25.9 | 116 | 14.3 | –
CN(C)C=NS(=O)(=O)c1ccc(-n2cc(C=O)c(-c3ccccc3)n2)cc1 [MS2] | – | 7.1 | cytotoxic effects | 4.5 | 34.3 | 74.3 | 63 | 245 | 262 | 214 | 53.3 | 241 | 41.3 | –
NS(=O)(=O)c1ccc(-n2cc(C=O)c(-c3ccccc3)n2)cc1 [MS3, 4-(4-formyl-3-phenyl-1H-pyrazol-1-yl) benzenesulfonamide] | – | 7.8 | cytotoxic effects | 4.7 | 32.3 | 51.7 | 46.3 | 253 | 217 | 221 | 48.6 | 230 | 64 | –
Cc1ccc(C(=O)/C=C/c2cn(-c3ccc(S(N)(=O)=O)cc3)nc2-c2ccccc2)cc1 [MS5, (E)-4-(4-(3-Oxo-3-(p-tolyl)prop-1-en-1-yl)-3-phenyl-1H-pyrazol-1-yl)benzenesulfonamide] | – | 88.8 | cytostatic effects | >19.1 | 1.6 | 34.7 | 3.1 | 145 | > 400 | 30.3 | 10.1 | > 192 | 0.9 | 5426
